In ChEMBL document CHEMBL1132568, “Synthesis, pharmacological evaluation, and structure-activity relationship and quantitative structure-activity relationship studies on novel derivatives of 2,4-diamino-6,7-dimethoxyquinazoline alpha1-adrenoceptor antagonists” (J Med Chem, 1999):

Legend:
[1] = biological target: 5-hydroxytryptamine receptor 2A (Rattus norvegicus, UniProt P14842); assay: Inhibitory concentration against 5-hydroxytryptamine 2A receptor (Inactive at >1000 nM concentration)
[2] = biological target: T1, Alpha-1A adrenergic receptor (Rattus norvegicus, UniProt P43140); assay: The binding affinity towards Alpha-1A adrenergic receptor in the COS cell line.; type: cell-based
T1 sequence (P43140 whole entry): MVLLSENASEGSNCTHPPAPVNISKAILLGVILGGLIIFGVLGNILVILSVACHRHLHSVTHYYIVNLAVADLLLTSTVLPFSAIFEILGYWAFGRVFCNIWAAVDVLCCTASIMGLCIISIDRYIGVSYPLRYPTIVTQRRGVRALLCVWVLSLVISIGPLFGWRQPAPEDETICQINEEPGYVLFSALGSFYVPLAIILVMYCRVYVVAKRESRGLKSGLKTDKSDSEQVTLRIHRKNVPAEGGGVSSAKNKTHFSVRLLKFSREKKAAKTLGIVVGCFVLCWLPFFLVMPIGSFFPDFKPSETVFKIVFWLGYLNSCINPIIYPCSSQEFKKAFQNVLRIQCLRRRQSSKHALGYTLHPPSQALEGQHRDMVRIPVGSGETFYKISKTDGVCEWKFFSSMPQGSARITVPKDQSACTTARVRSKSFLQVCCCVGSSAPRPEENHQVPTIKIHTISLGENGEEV

[3] = biological target: Alpha-1D adrenergic receptor (Rattus norvegicus); assay: The binding affinity towards Alpha-1D adrenergic receptor in the COS cell line.
Canis familiaris [4] = assay: In vivo hypotensive effect(DBP) in dog after intravenous administration.; type: functional, Canis lupus familiaris
[5] = biological target: T2, Adrenergic receptor alpha-2 (Rattus norvegicus, UniProt P22086+P19328+P22909); assay: Inhibitory concentration against Alpha-2 adrenergic receptor; type: protein assay
T2 sequence (P22086 whole entry): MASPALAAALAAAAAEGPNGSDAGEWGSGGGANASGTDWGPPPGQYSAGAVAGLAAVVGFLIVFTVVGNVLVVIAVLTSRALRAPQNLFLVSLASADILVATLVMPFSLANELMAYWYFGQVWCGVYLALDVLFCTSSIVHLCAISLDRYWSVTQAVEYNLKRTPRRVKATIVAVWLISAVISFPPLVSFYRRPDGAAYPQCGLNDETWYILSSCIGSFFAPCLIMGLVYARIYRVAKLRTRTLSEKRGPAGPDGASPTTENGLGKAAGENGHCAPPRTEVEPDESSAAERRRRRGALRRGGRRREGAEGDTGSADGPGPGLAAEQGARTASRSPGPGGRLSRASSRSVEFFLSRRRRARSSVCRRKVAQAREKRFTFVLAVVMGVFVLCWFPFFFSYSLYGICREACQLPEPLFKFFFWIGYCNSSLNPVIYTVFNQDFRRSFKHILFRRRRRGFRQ
T2 sequence (P19328 whole entry): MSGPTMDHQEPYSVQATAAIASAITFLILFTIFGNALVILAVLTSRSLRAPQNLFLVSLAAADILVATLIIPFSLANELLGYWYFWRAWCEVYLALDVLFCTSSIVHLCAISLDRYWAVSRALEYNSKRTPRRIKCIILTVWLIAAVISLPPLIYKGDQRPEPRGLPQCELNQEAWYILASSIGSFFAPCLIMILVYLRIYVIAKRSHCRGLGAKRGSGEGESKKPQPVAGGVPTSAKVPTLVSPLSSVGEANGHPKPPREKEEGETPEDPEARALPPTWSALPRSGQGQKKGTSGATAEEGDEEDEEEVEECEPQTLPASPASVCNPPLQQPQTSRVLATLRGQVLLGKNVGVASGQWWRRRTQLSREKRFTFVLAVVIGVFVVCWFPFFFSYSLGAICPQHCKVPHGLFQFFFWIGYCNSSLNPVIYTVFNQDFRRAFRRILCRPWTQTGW
T2 sequence (P22909 whole entry): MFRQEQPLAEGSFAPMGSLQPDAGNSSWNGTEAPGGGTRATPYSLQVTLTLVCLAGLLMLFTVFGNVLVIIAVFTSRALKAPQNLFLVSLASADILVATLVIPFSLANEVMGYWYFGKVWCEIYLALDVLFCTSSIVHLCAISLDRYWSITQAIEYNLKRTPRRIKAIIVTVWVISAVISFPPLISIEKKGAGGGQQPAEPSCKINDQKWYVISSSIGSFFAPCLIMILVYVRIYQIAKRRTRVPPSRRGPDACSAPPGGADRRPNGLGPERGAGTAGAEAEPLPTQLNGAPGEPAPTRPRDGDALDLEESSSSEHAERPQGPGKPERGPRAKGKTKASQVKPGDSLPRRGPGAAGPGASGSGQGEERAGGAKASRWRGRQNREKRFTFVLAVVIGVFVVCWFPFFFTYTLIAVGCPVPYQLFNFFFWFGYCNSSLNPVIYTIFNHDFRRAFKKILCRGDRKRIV

D(2) dopamine receptor = D(2) dopamine receptor (Rattus norvegicus, UniProt P61169); assay: Inhibitory concentration against Dopamine receptor D2 (Inactive at >1000 nM concentration)
Canis familiaris [6] = assay: In vivo effect on urethral contractility (UP) of dog after intravenous administration.; type: functional, Canis lupus familiaris, Urethra
[7] = biological target: T3, Adrenergic receptor alpha-1 (Rattus norvegicus, UniProt P15823+P23944+P43140); assay: Inhibition of Alpha-1 adrenergic receptor in rat cortex membrane; type: cell membranes
T3 sequence (P15823 whole entry): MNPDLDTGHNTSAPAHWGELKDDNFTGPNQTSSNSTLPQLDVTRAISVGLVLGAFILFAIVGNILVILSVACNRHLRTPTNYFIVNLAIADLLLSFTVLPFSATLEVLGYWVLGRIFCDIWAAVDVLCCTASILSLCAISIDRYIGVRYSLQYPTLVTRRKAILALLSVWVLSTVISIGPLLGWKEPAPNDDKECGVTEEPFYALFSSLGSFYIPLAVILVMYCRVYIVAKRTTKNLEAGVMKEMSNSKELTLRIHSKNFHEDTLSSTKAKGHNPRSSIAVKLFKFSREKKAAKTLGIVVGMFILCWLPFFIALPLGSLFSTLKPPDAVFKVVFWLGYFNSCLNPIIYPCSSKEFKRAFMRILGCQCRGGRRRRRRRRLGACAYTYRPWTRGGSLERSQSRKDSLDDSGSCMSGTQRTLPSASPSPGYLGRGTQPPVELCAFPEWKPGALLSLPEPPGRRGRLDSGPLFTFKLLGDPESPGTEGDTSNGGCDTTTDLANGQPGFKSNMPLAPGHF
T3 sequence (P23944 whole entry): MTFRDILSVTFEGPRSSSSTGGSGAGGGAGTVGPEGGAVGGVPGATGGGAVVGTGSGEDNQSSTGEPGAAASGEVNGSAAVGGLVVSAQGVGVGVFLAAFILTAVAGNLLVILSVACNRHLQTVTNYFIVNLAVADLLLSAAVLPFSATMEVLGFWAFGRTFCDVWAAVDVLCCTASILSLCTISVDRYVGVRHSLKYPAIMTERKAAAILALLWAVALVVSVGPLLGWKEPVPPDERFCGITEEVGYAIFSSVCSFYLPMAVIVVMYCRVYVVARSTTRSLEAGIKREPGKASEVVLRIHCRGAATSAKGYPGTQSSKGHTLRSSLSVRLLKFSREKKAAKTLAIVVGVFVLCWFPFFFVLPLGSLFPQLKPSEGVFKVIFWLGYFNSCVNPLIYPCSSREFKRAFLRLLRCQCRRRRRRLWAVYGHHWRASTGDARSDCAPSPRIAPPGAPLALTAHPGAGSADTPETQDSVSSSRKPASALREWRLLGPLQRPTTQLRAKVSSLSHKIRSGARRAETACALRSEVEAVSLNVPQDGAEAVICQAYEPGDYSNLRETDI
T3 sequence (P43140 whole entry): T1 sequence (P43140 whole entry)

[8] = biological target: Alpha-1B adrenergic receptor (non-human animal clone); assay: The binding affinity towards Alpha-1B adrenergic receptor in the COS cell line.
[9] = biological target: T4, 5-hydroxytryptamine receptor 1A (Rattus norvegicus, UniProt P19327); assay: Inhibitory concentration against 5-hydroxytryptamine 1A receptor (Inactive at >1000 nM concentration)
T4 sequence (P19327 whole entry): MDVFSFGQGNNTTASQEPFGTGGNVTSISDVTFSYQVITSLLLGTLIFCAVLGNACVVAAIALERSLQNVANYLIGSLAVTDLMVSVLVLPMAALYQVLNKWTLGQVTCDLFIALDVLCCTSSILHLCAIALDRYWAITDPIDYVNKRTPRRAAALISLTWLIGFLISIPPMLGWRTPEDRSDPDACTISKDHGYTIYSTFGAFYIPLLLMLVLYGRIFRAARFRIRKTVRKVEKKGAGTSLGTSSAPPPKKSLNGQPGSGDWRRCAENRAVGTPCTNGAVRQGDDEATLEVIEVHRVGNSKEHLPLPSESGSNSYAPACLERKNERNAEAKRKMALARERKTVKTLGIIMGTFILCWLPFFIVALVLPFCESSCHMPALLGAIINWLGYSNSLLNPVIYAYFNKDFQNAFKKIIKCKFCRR

Canis familiaris [10] = assay: Ratio of the in vivo effects(DBP/UP) in the dog model after intravenous administration.; type: functional, Canis lupus familiaris
[11] = biological target: T4, 5-hydroxytryptamine receptor 1A; assay: Inhibition concentration against 5-hydroxytryptamine 1A receptor

D(2) dopamine receptor, sequence (P61169 whole entry): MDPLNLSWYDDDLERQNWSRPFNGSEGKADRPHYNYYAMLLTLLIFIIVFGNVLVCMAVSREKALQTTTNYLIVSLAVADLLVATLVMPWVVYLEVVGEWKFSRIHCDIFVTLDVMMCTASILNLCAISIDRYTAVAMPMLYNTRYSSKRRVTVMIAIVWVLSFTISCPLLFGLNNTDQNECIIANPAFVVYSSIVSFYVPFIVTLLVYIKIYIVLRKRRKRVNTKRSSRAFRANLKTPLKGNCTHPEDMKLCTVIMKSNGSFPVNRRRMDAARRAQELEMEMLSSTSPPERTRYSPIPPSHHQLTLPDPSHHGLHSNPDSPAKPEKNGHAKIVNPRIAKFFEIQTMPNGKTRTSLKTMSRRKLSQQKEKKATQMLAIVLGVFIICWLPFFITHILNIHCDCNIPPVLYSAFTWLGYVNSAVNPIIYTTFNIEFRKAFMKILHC
5-hydroxytryptamine receptor 2A, sequence (P14842 whole entry): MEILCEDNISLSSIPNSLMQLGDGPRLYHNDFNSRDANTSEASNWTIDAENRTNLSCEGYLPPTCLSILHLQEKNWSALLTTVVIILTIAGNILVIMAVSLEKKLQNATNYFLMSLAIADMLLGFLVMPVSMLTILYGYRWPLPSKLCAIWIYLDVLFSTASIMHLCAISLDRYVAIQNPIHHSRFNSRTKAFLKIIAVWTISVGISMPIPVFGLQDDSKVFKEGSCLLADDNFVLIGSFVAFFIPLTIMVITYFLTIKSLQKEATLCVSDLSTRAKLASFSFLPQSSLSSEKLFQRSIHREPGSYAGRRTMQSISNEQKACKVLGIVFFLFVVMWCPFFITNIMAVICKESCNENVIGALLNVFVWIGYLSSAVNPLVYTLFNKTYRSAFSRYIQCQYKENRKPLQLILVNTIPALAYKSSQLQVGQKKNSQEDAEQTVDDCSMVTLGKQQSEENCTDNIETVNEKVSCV

IC50 [1]	Ki [2]	Ki [3]	IC50 [5]	IC50 (D(2) dopamine receptor)	IC50 [7]	Ki [8]	IC50 [9]	IC50 [11]	SMILES	ED25 (Canis familiaris [4])	ED50 (Canis familiaris [6])	DBP/UP ratio (Canis familiaris [10])
> 1000 nM	11 nM	8.17 nM	> 1000 nM	> 1000 nM	7.2 nM	5.43 nM	> 1000 nM		COc1cc2nc(N3CCN(C(=O)CC(=O)c4ccccc4)CC3)nc(N)c2cc1OC	0.0081 mg/kg	0.0106 mg/kg	0.7
> 1000 nM			> 1000 nM	> 1000 nM				170 nM	COc1cc2nc(N3CCN(C(=O)COc4ccccc4OC)CC3)nc(N)c2cc1OC			

Further lines, the compound ahead of its results:

SMILES	IC50 [1]	Ki [2]	Ki [3]	IC50 [5]	IC50 (D(2) dopamine receptor)	IC50 [7]	Ki [8]	IC50 [9]	IC50 [11]	ED25 (Canis familiaris [4])	ED50 (Canis familiaris [6])	DBP/UP ratio (Canis familiaris [10])
COc1cc2nc(N3CCN(C(=O)CC(c4ccccc4)c4ccccc4)CC3)nc(N)c2cc1OC	> 1000 nM	1.48 nM		> 1000 nM	> 1000 nM	1.4 nM		> 1000 nM		0.023 mg/kg	0.031 mg/kg	
COc1cc2nc(N3CCN(C(=O)COc4c(OC)cccc4C(C)C)CC3)nc(N)c2cc1OC	> 1000 nM	7.5 nM		> 1000 nM	> 1000 nM	4 nM		> 1000 nM		0.183 mg/kg	0.065 mg/kg	
COc1cc2nc(N3CCN(C(=O)C(C)Oc4c(OC)cccc4C(C)C)CC3)nc(N)c2cc1OC (centres undefined)	> 1000 nM	156 nM	113 nM	> 1000 nM	> 1000 nM	123 nM	14.7 nM	> 1000 nM				
